Results on eight molecules are retold here after patent publication US12129246B1, “Hydroquinazoline derivatives for the treatment of a disease or disorder” (Novartis AG, priority 2023, dated 2024).

Read-outs that look alike come from different tables or passages of the source.

One assay deals with T1, human NPR1 (Homo sapiens, UniProt P16066).
T1 construct: host or cells: CHO-K1
T1 sequence (P16066 33-1061): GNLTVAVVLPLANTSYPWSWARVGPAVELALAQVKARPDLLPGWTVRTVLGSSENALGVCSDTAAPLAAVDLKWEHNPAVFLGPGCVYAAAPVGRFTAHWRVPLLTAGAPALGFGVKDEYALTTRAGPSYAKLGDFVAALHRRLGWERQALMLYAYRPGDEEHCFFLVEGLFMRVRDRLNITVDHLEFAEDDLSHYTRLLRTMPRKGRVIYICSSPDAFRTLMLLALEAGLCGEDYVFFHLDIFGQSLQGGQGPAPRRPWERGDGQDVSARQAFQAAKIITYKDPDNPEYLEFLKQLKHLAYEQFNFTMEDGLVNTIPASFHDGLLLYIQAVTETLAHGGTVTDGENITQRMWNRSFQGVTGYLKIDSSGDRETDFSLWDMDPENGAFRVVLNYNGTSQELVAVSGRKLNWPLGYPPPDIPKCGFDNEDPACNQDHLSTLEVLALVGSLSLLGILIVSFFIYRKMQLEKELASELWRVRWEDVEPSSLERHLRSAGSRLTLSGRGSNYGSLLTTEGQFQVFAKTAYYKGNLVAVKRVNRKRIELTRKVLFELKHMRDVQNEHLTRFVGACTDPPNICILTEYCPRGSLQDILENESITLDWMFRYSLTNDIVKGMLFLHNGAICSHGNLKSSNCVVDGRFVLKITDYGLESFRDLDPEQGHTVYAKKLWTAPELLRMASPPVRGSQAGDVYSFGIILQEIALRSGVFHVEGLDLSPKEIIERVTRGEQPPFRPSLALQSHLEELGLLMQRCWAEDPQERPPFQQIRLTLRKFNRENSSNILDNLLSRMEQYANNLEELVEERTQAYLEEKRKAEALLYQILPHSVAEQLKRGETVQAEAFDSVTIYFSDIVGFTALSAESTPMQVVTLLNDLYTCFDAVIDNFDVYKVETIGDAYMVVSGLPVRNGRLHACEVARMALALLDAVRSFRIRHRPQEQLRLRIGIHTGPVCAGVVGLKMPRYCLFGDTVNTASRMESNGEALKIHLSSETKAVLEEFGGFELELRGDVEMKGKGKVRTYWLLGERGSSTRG
Kind of assay: Cellular cGMP production assay, human NPR1 expressing CHO-K1 cells (CisBio HTRF). Particulars: for AC50: cGMP production, 30 min at 37° C., 12-point dose-response from 30 μM; for Human NPR1 Amax (% of ANP): maximum cGMP production as percentage of the maximum cGMP produced with ANP. Format: cell-based. The method in brief: (§1)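 Step 1: add buffer (PBS, 0.1% BSA, 1 mM IBMX) and compounds, 3-fold series from 30 μM top. Step 2: incubate 30 min, 37 °C. Step 3: lyse; HTRF reagents 1 h at RT.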

In a further assay the target is monkey NPR1 (Macaca fascicularis, UniProt A0A7N9DBT9). The assay is described as follows: Cellular cGMP production assay, monkey NPR1 expressing CHO-K1 cells (CisBio HTRF). Format: cell-based. Particulars: for Monkey NPR1 Amax (% of ANP): maximum cGMP production as percentage of the maximum cGMP produced with ANP. The method in brief: as §1
Sequence of monkey NPR1 (A0A7N9DBT9 entry or part of it): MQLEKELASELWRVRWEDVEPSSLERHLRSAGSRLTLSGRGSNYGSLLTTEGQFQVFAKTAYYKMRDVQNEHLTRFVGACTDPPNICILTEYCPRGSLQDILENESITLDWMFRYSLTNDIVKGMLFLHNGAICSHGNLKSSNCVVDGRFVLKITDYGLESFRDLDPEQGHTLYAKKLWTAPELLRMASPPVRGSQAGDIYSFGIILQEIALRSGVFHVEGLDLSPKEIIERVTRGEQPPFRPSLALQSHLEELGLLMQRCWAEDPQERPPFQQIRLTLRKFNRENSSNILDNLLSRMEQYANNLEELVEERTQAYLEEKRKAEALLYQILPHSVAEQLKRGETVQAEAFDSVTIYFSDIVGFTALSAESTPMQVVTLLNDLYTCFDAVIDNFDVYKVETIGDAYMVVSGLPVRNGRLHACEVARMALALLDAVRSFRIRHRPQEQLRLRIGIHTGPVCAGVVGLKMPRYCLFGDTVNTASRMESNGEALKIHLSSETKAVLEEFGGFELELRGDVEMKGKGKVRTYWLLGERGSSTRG
The mark [1] stands for this setting: cGMP production, monkey NPR1 CHO-K1 cells, 30 min at 37° C., 12-point dose-response from 30 μM, read-out: Monkey NPR1 AC50.

Regarding `CC[C@H]([C@H]1CC[C@H](C(=O)O)CC1)N(C)c1nc2c(c(N[C@@H](CN3CCC[C@H](COC)C3)c3cnn(C)c3)n1)C[C@H](c1cccc(F)c1)CC2` [Compound 35, (1R,4r)-4-((R)-1-(((R)-6-(3-fluorophenyl)-4-(((R)-2-((S)-3-(methoxymethyl)piperidin-1-yl)-1-(1-methyl-1H-pyrazol-4-yl)ethyl)amino)-5,6,7,8-tetrahydroquinazolin-2-yl)(methyl)amino)propyl)cyclohexane-1-carboxylic acid], the AC50 at human NPR1 turned out to be 148 nM; on monkey NPR1 (setting [1]), 127 nM. For the same molecule, the “Human NPR1 Amax (% of ANP)” value on human NPR1 was 92.607 % of ANP. Also, on monkey NPR1 (monkey NPR1 CHO-K1 cells), the “Monkey NPR1 Amax (% of ANP)” value is 104.934 % of ANP.

Turning to `CC[C@H]([C@H]1CC[C@H](C(=O)O)CC1)N(C)c1nc2c(c(N[C@@H](CN3CCC[C@H](CO)C3)c3cnn(C)c3)n1)C[C@H](c1ccccc1)CC2` [Compound 93, (1R,4r)-4-((R)-1-(((R)-4-(((R)-2-((S)-3-(hydroxymethyl)piperidin-1-yl)-1-(1-methyl-1H-pyrazol-4-yl)ethyl)amino)-6-phenyl-5,6,7,8-tetrahydroquinazolin-2-yl)(methyl)amino)propyl)cyclohexane-1-carboxylic acid], the results for the AC50 at human NPR1 and at monkey NPR1 (setting [1]) were 318 nM and 261 nM, respectively. Also, the “Human NPR1 Amax (% of ANP)” value on human NPR1 is on record as 92.058 % of ANP. Further, the “Monkey NPR1 Amax (% of ANP)” value on monkey NPR1 (monkey NPR1 CHO-K1 cells) was 91.105 % of ANP.

Turning to `CC[C@@H](Nc1nc2c(c(N[C@@H](CN3C4CCCC3CCC4)c3cnn(CC)c3)n1)C[C@H](c1ccccc1)CC2)[C@H]1CC[C@H](C(=O)O)CC1` [Compound 65, (1R,4r)-4-((R)-1-(((R)-4-(((R)-2-((1S,5S)-9-azabicyclo[3.3.1]nonan-9-yl)-1-(1-ethyl-1H-pyrazol-4-yl)ethyl)amino)-6-phenyl-5,6,7,8-tetrahydroquinazolin-2-yl)amino)propyl)cyclohexane-1-carboxylic acid], the figures for the AC50 on human NPR1 and at monkey NPR1 were 217 nM and 128 nM, respectively. Also, at human NPR1, the “Human NPR1 Amax (% of ANP)” value is recorded as 106.664 % of ANP. In addition, the “Monkey NPR1 Amax (% of ANP)” value on monkey NPR1 (monkey NPR1 CHO-K1 cells) is 99.329 % of ANP.

Turning to `CC[C@H]([C@H]1CC[C@H](C(=O)O)CC1)N(C)c1nc2c(c(N[C@@H](CN3CCC[C@H](CF)C3)c3cnn(C)c3)n1)C[C@H](c1ccccc1)CC2` [Compound 87, (1R,4r)-4-((R)-1-(((R)-4-(((R)-2-((S)-3-(fluoromethyl)piperidin-1-yl)-1-(1-methyl-1H-pyrazol-4-yl)ethyl)amino)-6-phenyl-5,6,7,8-tetrahydroquinazolin-2-yl)(methyl)amino)propyl)cyclohexane-1-carboxylic acid], the values for the AC50 at human NPR1 and on monkey NPR1 (setting [1]) were 292 nM and 235 nM, respectively. In addition, the “Human NPR1 Amax (% of ANP)” value at human NPR1 was 93.715 % of ANP. Besides, on monkey NPR1 (monkey NPR1 CHO-K1 cells), the “Monkey NPR1 Amax (% of ANP)” value is 100.104 % of ANP.

With `CC[C@@H](N(C)c1nc2c(c(N[C@@H](CN3C4CCCC3CCC4)c3cnn(C)c3)n1)C[C@H](c1cccc(F)c1)CC2)C12CC(C(=O)O)(C1)C2` [Compound 6, 3-((R)-1-(((R)-4-(((R)-2-((1S,5S)-9-azabicyclo[3.3.1]nonan-9-yl)-1-(1-methyl-1H-pyrazol-4-yl)ethyl)amino)-6-(3-fluorophenyl)-5,6,7,8-tetrahydroquinazolin-2-yl)(methyl)amino)propyl)bicyclo[1.1.1]pentane-1-carboxylic acid], at human NPR1, the AC50 came out at 77 nM and the “Human NPR1 Amax (% of ANP)” value is recorded as 98.462 % of ANP. At monkey NPR1, this molecule showed an AC50 of 58 nM. For the same molecule, the “Monkey NPR1 Amax (% of ANP)” value at monkey NPR1 (monkey NPR1 CHO-K1 cells) is recorded as 98.535 % of ANP.

Turning to `CC[C@@H]1CCCCN1C[C@H](Nc1nc(N[C@H](CC)[C@H]2CC[C@H](C(=O)O)CC2)nc2c1C[C@H](c1ccccc1)CC2)c1cnn(C)c1` [Compound 96, (1R,4r)-4-((R)-1-(((R)-4-(((R)-2-((R)-2-ethylpiperidin-1-yl)-1-(1-methyl-1H-pyrazol-4-yl)ethyl)amino)-6-phenyl-5,6,7,8-tetrahydroquinazolin-2-yl)amino)propyl)cyclohexane-1-carboxylic acid], the half-maximal activity concentration (AC50) on human NPR1 stood at 336 nM; on monkey NPR1 (setting [1]), 106 nM. Besides, at human NPR1, the “Human NPR1 Amax (% of ANP)” value is given as 103.654 % of ANP. Moreover, the “Monkey NPR1 Amax (% of ANP)” value on monkey NPR1 (monkey NPR1 CHO-K1 cells) was 101.912 % of ANP.

As for `CC[C@@H](Nc1nc2c(c(N[C@@H](CN3CCCC(C)(C)C3)c3cnn(C)c3)n1)C[C@H](c1ccccc1)CC2)[C@H]1CC[C@H](C(=O)O)CC1` [Compound 95, (1R,4r)-4-((R)-1-(((R)-4-(((R)-2-(3,3-dimethylpiperidin-1-yl)-1-(1-methyl-1H-pyrazol-4-yl)ethyl)amino)-6-phenyl-5,6,7,8-tetrahydroquinazolin-2-yl)amino)propyl)cyclohexane-1-carboxylic acid], the AC50 at human NPR1 came out at 334 nM; on monkey NPR1 (setting [1]) it was 173 nM. For the same molecule, the “Human NPR1 Amax (% of ANP)” value at human NPR1 was 97.121 % of ANP. Moreover, the “Monkey NPR1 Amax (% of ANP)” value on monkey NPR1 (monkey NPR1 CHO-K1 cells) is on record as 94.323 % of ANP.

`CC[C@@H](Nc1nc2c(c(N[C@@H](CN3C4CCCC3CC4)c3csc(C)n3)n1)C[C@H](c1cccc(F)c1)CC2)[C@H]1CC[C@H](C(=O)O)CC1` [Compound 127, (1R,4r)-4-((1R)-1-(((6R)-4-(((1S)-2-(8-azabicyclo[3.2.1]octan-8-yl)-1-(2-methylthiazol-4-yl)ethyl)amino)-6-(3-fluorophenyl)-5,6,7,8-tetrahydroquinazolin-2-yl)amino)propyl)cyclohexane-1-carboxylic acid]: on human NPR1, the activity was half-maximal at 623 nM (AC50) and the “Human NPR1 Amax (% of ANP)” value is on record as 102.596 % of ANP. This molecule also showed an AC50 on monkey NPR1 of 355 nM. Further, the “Monkey NPR1 Amax (% of ANP)” value on monkey NPR1 (monkey NPR1 CHO-K1 cells) is on record as 102.089 % of ANP.
